Source: US10219516B2, “Molecules having pesticidal utility, and intermediates, compositions, and processes, related thereto” (priority 2015, dated 2019)

What was measured:
Assay type in all cases: in vivo
[1] = system: Yellow Fever Mosquito (Aedes aegypti, AEDSAE); assay: Bioassay on Yellow Fever Mosquito (YFM), 96-well plate larval assay; conditions: Species YFM (Yellow Fever Mosquito)
Outline: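 Compound stocks at 4000 ppm in DMSO were diluted with 90:10 water/acetone, and 15 μL aliquots were dispensed into six replicate plates. About 1-day-old larvae in liver-powder water were added per well. Plates were covered and held at room temperature for 3 days before each well was scored for mortality.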

[2] = system: Beet Armyworm (Spodoptera exigua, LAPHEG); assay: Bioassay on Beet Armyworm (BAW), 128-well diet tray assay; conditions: Species BAW (Beet Armyworm), read-out: BAW (Biological Results, rating)
Outline: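 Second-instar larvae, one to five per well, placed on artificial diet surface-treated with 50 μg/cm^2 compound applied in 90:10 acetone-water and dried. Held 5–7 days at 25° C., 14:10 light-dark. Percent mortality recorded per well and averaged over eight wells.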

[3] = system: Cabbage Looper (Trichoplusia ni, TRIPNI); assay: Bioassay on Cabbage Looper (CL), 128-well diet tray assay; conditions: Trichoplusia ni; Species CL (Cabbage Looper); read-out: CL (Biological Results, rating)
Outline: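 Percent mortality, averaged across eight replicate wells, was scored after five to seven days at 25° C. under a 14:10 light-dark cycle. Each well held one to five second instar larvae on artificial diet treated at 50 μg/cm^2 with compound from 90:10 acetone-water, allowed to dry before infestation.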

Structure (SMILES) | YFM (Biological Results, rating) [1] | pest or weed control at 50 µg/cm2 [2] | pest or weed control at 50 µg/cm2 [3]
CNc1ccc(NC(=O)c2cc(NC(=O)[C@H]3[C@H](c4ccc(F)c(Cl)c4)C3(Cl)Cl)ccc2Cl)c(C)c1 (relative stereo) [F224, trans-2-Chloro-5-(2,2-dichloro-3-(3-chloro-4-fluorophenyl)cyclopropane-1-carboxamido)-N-(2-methyl-4-(methylamino)phenyl)benzamide] | A (80-100) | 50 to 100% | 50 to 100%
CNc1ccc(N(C)C(=O)c2cc(NC(=O)[C@H]3[C@H](c4cc(Cl)c(Cl)c(Cl)c4)C3(Cl)Cl)ccc2Cl)c(C)c1 (relative stereo) [F226, trans-2-Chloro-5-(2,2-dichloro-3-(3,4,5-trichlorophenyl)cyclopropane-1-carboxamido)-N-methyl-N-(2-methyl-4-(methylamino)phenyl)benzamide] | A (80-100) | 50 to 100% | 50 to 100%
Cc1cc(N)ccc1NC(=O)c1cc(NC(=O)[C@H]2[C@H](c3cc(Cl)c(Cl)c(Cl)c3)C2(Cl)Cl)ccc1Cl (relative stereo) [F227, trans-N-(4-Amino-2-methylphenyl)-2-chloro-5-(2,2-dichloro-3-(3,4,5-trichlorophenyl)cyclopropane-1-carboxamido)benzamide] | A (80-100) | 50 to 100% | 50 to 100%
Cc1cc(N)ccc1NC(=O)c1cc(NC(=O)[C@H]2[C@H](c3ccc(F)c(Cl)c3)C2(Cl)Cl)ccc1Cl (relative stereo) [F228, trans-N-(4-Amino-2-methylphenyl)-2-chloro-5-(2,2-dichloro-3-(3-chloro-4-fluorophenyl)cyclopropane-1-carboxamido)benzamide] | A (80-100) | 50 to 100% | 50 to 100%
N#Cc1cc([N+](=O)[O-])ccc1NC(=O)c1cc(NC(=O)[C@H]2[C@H](c3cc(Cl)cc(Cl)c3)C2(Cl)Cl)ccc1Cl (relative stereo) [F229, trans-2-chloro-N-(2-cyano-4-nitrophenyl)-5-(2,2-dichloro-3-(3,5-dichlorophenyl)cyclopropane-1-carboxamido)benzamide] | A (80-100) | 50 to 100% | 50 to 100%
Cc1ccc(C#N)c(NC(=O)c2cc(NC(=O)[C@H]3[C@H](c4cc(Cl)cc(Cl)c4)C3(Cl)Cl)ccc2Cl)c1 (relative stereo) [F230, 2-Chloro-N-(2-cyano-5-methylphenyl)-5-(trans-2,2-dichloro-3-(3,5-dichlorophenyl)cyclopropane-1-carboxamido)benzamide] | A (80-100) | 50 to 100% | 50 to 100%
Cc1ccc(NC(=O)c2cc(NC(=O)[C@H]3[C@H](c4cc(Cl)cc(Cl)c4)C3(Cl)Cl)ccc2Cl)c([N+](=O)[O-])c1 (relative stereo) [F231, 2-Chloro-5-(trans-2,2-dichloro-3-(3,5-dichlorophenyl)cyclopropane-1-carboxamido)-N-(4-methyl-2-nitrophenyl)benzamide] | A (80-100) | 50 to 100% | 50 to 100%
N#Cc1cc(C(F)(F)F)ccc1NC(=O)c1cc(NC(=O)[C@H]2[C@H](c3cc(Cl)cc(Cl)c3)C2(Cl)Cl)ccc1Cl (relative stereo) [F232, 2-Chloro-N-(2-cyano-4-(trifluoromethyl)phenyl)-5-(trans-2,2-dichloro-3-(3,5-dichlorophenyl)cyclopropane-1-carboxamido)benzamide] | A (80-100) | 50 to 100% | 50 to 100%
N#Cc1ccc(NC(=O)c2cc(NC(=O)[C@H]3[C@H](c4cc(Cl)cc(Cl)c4)C3(Cl)Cl)ccc2Cl)cc1F (relative stereo) [F233, 2-Chloro-N-(4-cyano-3-fluorophenyl)-5-(trans-2,2-dichloro-3-(3,5-dichlorophenyl)cyclopropane-1-carboxamido)benzamide] | A (80-100) | 50 to 100% | 50 to 100%
COc1cc(NC(=O)c2cc(NC(=O)[C@H]3[C@H](c4cc(Cl)cc(Cl)c4)C3(Cl)Cl)ccc2Cl)ccc1C#N (relative stereo) [F234, 2-Chloro-N-(4-cyano-3-methoxyphenyl)-5-(trans-2,2-dichloro-3-(3,5-dichlorophenyl)cyclopropane-1-carboxamido)benzamide] | A (80-100) | 50 to 100% | 50 to 100%
N#Cc1ccc(NC(=O)c2cc(NC(=O)[C@H]3[C@H](c4cc(Cl)cc(Cl)c4)C3(Cl)Cl)ccc2Cl)cc1C(F)(F)F (relative stereo) [F235, 2-Chloro-N-(4-cyano-3-(trifluoromethyl)phenyl)-5-(trans-2,2-dichloro-3-(3,5-dichlorophenyl)cyclopropane-1-carboxamido)benzamide] | A (80-100) | 50 to 100% | 50 to 100%
N#Cc1cc(N)ccc1NC(=O)c1cc(NC(=O)[C@H]2[C@H](c3cc(Cl)cc(Cl)c3)C2(Cl)Cl)ccc1Cl (relative stereo) [F236, trans-N-(4-amino-2-cyanophenyl)-2-chloro-5-(2,2-dichloro-3-(3,5-dichlorophenyl)cyclopropane-1-carboxamido)benzamide] | A (80-100) | 50 to 100% | 50 to 100%
CNc1ccc(NC(=O)c2cc(NC(=O)[C@H]3[C@H](c4cc(Cl)cc(Cl)c4)C3(Cl)Cl)ccc2Cl)c(C#N)c1 (relative stereo) [F237, trans-2-chloro-N-(2-cyano-4-(methylamino)phenyl)-5-(2,2-dichloro-3-(3,5-dichlorophenyl)cyclopropane-1-carboxamido)benzamide] | A (80-100) | 50 to 100% | 50 to 100%
Nc1cc(NC(=O)c2cc(NC(=O)[C@H]3[C@H](c4cc(Cl)cc(Cl)c4)C3(Cl)Cl)ccc2Cl)ccc1F (relative stereo) [F238, trans-N-(3-Amino-4-fluorophenyl)-2-chloro-5-(2,2-dichloro-3-(3,5-dichlorophenyl)cyclopropane-1-carboxamido)benzamide] | A (80-100) | 50 to 100% | 50 to 100%
CNc1cc(NC(=O)c2cc(NC(=O)[C@H]3[C@H](c4cc(Cl)cc(Cl)c4)C3(Cl)Cl)ccc2Cl)ccc1F (relative stereo) [F239, trans-2-Chloro-5-(2,2-dichloro-3-(3,5-dichlorophenyl)cyclopropane-1-carboxamido)-N-(4-fluoro-3-(methylamino)phenyl)benzamide] | A (80-100) | 50 to 100% | 50 to 100%
O=C(Nc1cccc(F)n1)c1cc(NC(=O)[C@H]2[C@H](c3cc(Cl)cc(Cl)c3)C2(Cl)Cl)ccc1Cl (relative stereo) [F240, trans-2-Chloro-5-(2,2-dichloro-3-(3,5-dichlorophenyl)cyclopropane-1-carboxamido)-N-(6-fluoropyridin-2-yl)benzamide] | A (80-100) | 50 to 100% | 50 to 100%
O=C(Nc1ncc(F)cc1F)c1cc(NC(=O)[C@H]2[C@H](c3cc(Cl)cc(Cl)c3)C2(Cl)Cl)ccc1Cl (relative stereo) [F241, trans-2-Chloro-5-(2,2-dichloro-3-(3,5-dichlorophenyl)cyclopropane-1-carboxamido)-N-(3,5-difluoropyridin-2-yl)benzamide] | A (80-100) | 50 to 100% | 50 to 100%
Cc1cc(F)cnc1NC(=O)c1cc(NC(=O)[C@H]2[C@H](c3cc(Cl)cc(Cl)c3)C2(Cl)Cl)ccc1Cl (relative stereo) [F242, trans-2-Chloro-5-(2,2-dichloro-3-(3,5-dichlorophenyl)cyclopropane-1-carboxamido)-N-(5-fluoro-3-methylpyridin-2-yl)benzamide] | A (80-100) | 50 to 100% | 50 to 100%
CN(C(=O)c1cc(NC(=O)[C@H]2[C@H](c3cc(Cl)cc(Cl)c3)C2(Cl)Cl)ccc1Cl)c1ccc(F)cc1C#N (relative stereo) [F243, trans-2-Chloro-N-(2-cyano-4-fluorophenyl)-5-(2,2-dichloro-3-(3,5-dichlorophenyl)cyclopropane-1-carboxamido)-N-methylbenzamide] | A (80-100) | 50 to 100% | 50 to 100%
CN(C(=O)c1cc(NC(=O)[C@H]2[C@H](c3cc(Cl)c(Cl)c(Cl)c3)C2(Cl)Cl)ccc1Cl)c1ccc(F)cc1C#N (relative stereo) [F244, trans-2-Chloro-N-(2-cyano-4-fluorophenyl)-5-(2,2-dichloro-3-(3,4,5-trichlorophenyl)cyclopropane-1-carboxamido)-N-methylbenzamide] | A (80-100) | 50 to 100% | 50 to 100%
